We go through 29 molecules from US10703764B2, “Benzopiperazine compositions as BET bromodomain inhibitors” (FORMA Therapeutics, Inc., priority 2013, dated 2020).

The target in one assay is T1, BRD4 BD1 (Homo sapiens, UniProt O60885).
T1 construct: made in house
Kind of assay: AlphaScreen binding assay, BRD4 Bromodomain 1. The method, boiled down: (§1)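 An AlphaScreen competition format was used with His-BRD4 BD1 or BD2 and biotin-H4 K5/8/12/16-acetyl peptide, each at matched final levels of 50 nM (BD1) or 100 nM (BD2). Incubation in HEPES/NaCl buffer with 0.1% BSA and 0.01% Triton X-100 ran ≥1 h before IC50 determination.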

For a further assay, the target named is T2, BRD4 BD2 (Homo sapiens, UniProt O60885).
T2 construct: made in house
The experiment in a line: AlphaScreen binding assay, BRD4 Bromodomain 2. Put shortly: as §1

The test system of the next assay is MV4-11 cells. Kind of assay: Oncology cell growth assay (3-day proliferation, CellTiter-Glo). The class given is cell-based. To be noted: Homo sapiens, AML cell line MV4-11, 72 hours, compounds grouped by IC50 range, read-out: MV4-11 IC50 (inhibition of proliferation, gIC50). Put shortly:
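A 3-day proliferation test used MV4-11 cells seeded at 3000 per well with eight compound concentrations (10 μM top, 3-fold dilution) at 37° C in 5% CO2. CellTiter-Glo luminescence defined viable cell signal. A four-parameter logistic curve against DMSO and background wells gave the gIC50.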

Read-outs that look alike come from different tables or passages of the source.

`CC(=O)N1c2ccc(-c3cnn(C4CC4)c3)cc2N(C(=O)Oc2ccc3c(c2)ncn3C)C[C@@H]1C` [Example I-1205]: the IC50 at BRD4 BD1 is 100 to 1000 nM; on BRD4 BD2, < 50 nM; in the assay with MV4-11 cells (MV4-11, 72 h), 100 to 500 nM.
Taken in the same sequence, the figures for `CC(=O)N1c2ccc(-c3ccc(S(C)(=O)=O)cc3)cc2N(C(=O)OC2CCCCC2)C[C@@H]1C` [Example I-238] were 100 to 1000 nM, < 50 nM and 100 to 500 nM.
As for `COc1ccc(-c2ccc3c(c2)N(C(=O)OC(C)C)C[C@H](C)N3C(C)=O)cc1NS(C)(=O)=O` [Example I-1142], the IC50 on BRD4 BD1 was in the range of 100 to 1000 nM; at BRD4 BD2, 50 to 500 nM; in the assay on MV4-11 cells (MV4-11, 72 h) it was 100 to 500 nM.
Take `CC(=O)N1c2ccc(-c3cccc(S(=O)(=O)NCCO)c3)cc2N(C(=O)OC(C)C)C[C@@H]1C` [Example I-1111]: the IC50 at BRD4 BD1 is 100 to 1000 nM; at BRD4 BD2, 50 to 500 nM; in the assay with MV4-11 cells (MV4-11, 72 h), 100 to 500 nM.
As to `CC(C)OC(=O)N1C[C@H](C)N(C(=O)C2CC2)c2ccc(-c3ccc(C4(O)COC4)cc3)cc21` [Example I-474], the IC50 on BRD4 BD1 is 100 to 1000 nM; at BRD4 BD2 it was 50 to 500 nM; in the assay on MV4-11 cells (MV4-11, 72 h), > 500 nM.
The corresponding values for `CC(=O)N1c2ccc(-c3ccc(NS(=O)(=O)C4CC4)cc3)cc2N(C(=O)C2CC2)C[C@@H]1C` [Example I-351] are 100 to 1000 nM, 50 to 500 nM and 100 to 500 nM.
As to `CCOC(=O)N1C[C@H](C)N(C(C)=O)c2ccc(-c3ccc(S(=O)(=O)NCCO)cc3)cc21` [Example I-1037], the IC50 at BRD4 BD1 lay in the range of 1000 to 10000 nM; on BRD4 BD2 it was 50 to 500 nM; with MV4-11 cells (MV4-11, 72 h) it was 100 to 500 nM.
Take `CC(=O)N1c2ccc(-c3cnn(CCO)c3)cc2N(C(=O)Oc2ccc(F)cc2)C[C@@H]1C` [Example I-1015]: the IC50 lay within 100 to 1000 nM on BRD4 BD1; 50 to 500 nM on BRD4 BD2; 100 to 500 nM in the assay with MV4-11 cells (MV4-11, 72 h).
The corresponding values for `CC(=O)N1c2ccc(-c3ccc(NS(C)(=O)=O)cc3)cc2N(C(=O)Oc2ccc(F)cc2F)C[C@@H]1C` [Example I-1013] are 100 to 1000 nM, 50 to 500 nM and 100 to 500 nM.
The corresponding values for `CC(C)OC(=O)N1C[C@H](C)N(C(=O)C2CC2)c2ccc(-c3ccc(C(=O)N4CC[C@@H](O)C4)cc3)cc21` [Example I-576] are 100 to 1000 nM, 50 to 500 nM and 100 to 500 nM.
Consider `CCCS(=O)(=O)c1ccc(-c2ccc3c(c2)N(C(=O)C2CC2)C[C@H](C)N3C(C)=O)cc1` [Example I-1070], for which the IC50 at BRD4 BD1 lay in the range of 1000 to 10000 nM; on BRD4 BD2, 50 to 500 nM; with MV4-11 cells (MV4-11, 72 h), 100 to 500 nM.
The corresponding values for `CC(=O)N1c2ccc(-c3cn[nH]c3)cc2N(C(=O)c2ccco2)C[C@@H]1C` [Example I-13, (S)-1-(4-(furan-2-carbonyl)-2-methyl-6-(1H-pyrazol-4-yl)-3,4-dihydro-quinoxalin-1(2H)-yl)ethanone] are 100 to 1000 nM, < 50 nM and 100 to 500 nM.
The corresponding values for `CC(=O)N1c2ccc(-c3ccc(N4CCS(=O)(=O)CC4)cc3)cc2N(C(=O)C2CC2)C[C@@H]1C` [Example I-435] are 100 to 1000 nM, < 50 nM and 100 to 500 nM.
Taken in the same sequence, the figures for `CC(C)OC(=O)N1C[C@H](C)N(C(=O)C2CC2)c2ccc(-c3cnc(N)cn3)cc21` [Example I-472] were 100 to 1000 nM, > 500 nM and > 500 nM.
`CC(=O)N1c2ccc(-c3ccc(C(=O)N(C)c4ccccn4)cc3)cc2N(C(=O)OC(C)C)C[C@@H]1C` [Example I-552]: the IC50 on BRD4 BD1 lay within 100 to 1000 nM; at BRD4 BD2, 50 to 500 nM; in the assay with MV4-11 cells (MV4-11, 72 h) it was 100 to 500 nM.
Taken in the same sequence, the figures for `COC(=O)N1c2ccc(-c3ccc(C(=O)N4CC[C@H](O)C4)cc3)cc2N(C(=O)OC(C)C)C[C@@H]1C` [Example I-575] were 100 to 1000 nM, 50 to 500 nM and 100 to 500 nM.
The corresponding values for `COCCn1cc(-c2ccc3c(c2)N(C(=O)OC(C)C)C[C@H](C)N3C(=O)C2CC2)cn1` [Example I-314] are 100 to 1000 nM, 50 to 500 nM and 100 to 500 nM.
Taken in the same sequence, the figures for `CC(=O)N1c2ccc(-c3ccc(S(N)(=O)=O)cc3)cc2N(C(=O)c2ccco2)C[C@@H]1C` [Example I-281] were 1000 to 10000 nM, < 50 nM and 100 to 500 nM.
`COC(=O)N1c2ccc(-c3cnn(C4CCNCC4)c3)cc2N(C(=O)Oc2ccc(F)cc2)C[C@@H]1C` [Example I-1151]: the IC50 was 100 to 1000 nM at BRD4 BD1, 50 to 500 nM at BRD4 BD2 and 100 to 500 nM in the assay with MV4-11 cells.
Regarding `CC(=O)N1c2ccc(-c3cccc(S(N)(=O)=O)c3)cc2N(C(=O)OC2CCCCC2)C[C@@H]1C` [Example I-1219], the IC50 on BRD4 BD1 was 100 to 1000 nM; on BRD4 BD2, < 50 nM; in the assay with MV4-11 cells (MV4-11, 72 h), < 100 nM.
The corresponding values for `COC(=O)N1c2ccc(-c3cnn(CCN4CCOCC4)c3)cc2N(C(=O)OC(C)C)C[C@@H]1C` [Example I-321] are 100 to 1000 nM, 50 to 500 nM and 100 to 500 nM.
As to `COC(=O)N1c2ccc(-c3cnn(Cc4ccncc4)c3)cc2N(C(=O)OC(C)C)C[C@@H]1C` [Example I-640], the IC50 on BRD4 BD1 is 100 to 1000 nM; at BRD4 BD2 it was 50 to 500 nM; in the assay on MV4-11 cells (MV4-11, 72 h), > 500 nM.
Consider `CC(=O)N1c2ccc(-c3cc(Cl)cc(S(C)(=O)=O)c3)cc2N(C(=O)C2CC2)C[C@@H]1C` [Example I-1094], for which the IC50 on BRD4 BD1 was 1000 to 10000 nM; at BRD4 BD2, > 500 nM; with MV4-11 cells (MV4-11, 72 h), > 500 nM.
As to `CC(C)OC(=O)N1C[C@H](C)N(C(=O)C2CC2)c2ccc(-c3cnn(CC4COC4)c3)cc21` [Example I-643], the IC50 on BRD4 BD1 is 100 to 1000 nM; on BRD4 BD2, 50 to 500 nM; with MV4-11 cells (MV4-11, 72 h), 100 to 500 nM.
Taken in the same sequence, the figures for `CC(=O)N1c2ccc(-c3cccc(S(=O)(=O)C4CC4)c3)cc2N(C(=O)OC2CCCCC2)C[C@@H]1C` [Example I-1243] were 100 to 1000 nM, 50 to 500 nM and 100 to 500 nM.
For `CC(=O)Nc1cc2c(cc1-c1cnn(C3CC3)c1)N(C(=O)OC(C)C)C[C@H](C)N2C(C)=O` [Example I-214, Isopropyl (S)-6-acetamido-4-acetyl-7-(1-cyclopropyl-1H-pyrazol-4-yl)-3-methyl-3,4-dihydroquinoxaline-1(2H)-carboxylate], the IC50 at BRD4 BD1 was in the range of 100 to 1000 nM; at BRD4 BD2, 50 to 500 nM; in the assay with MV4-11 cells (MV4-11, 72 h) it was 100 to 500 nM.
The corresponding values for `CCCS(=O)(=O)c1ccc(-c2ccc3c(c2)N(C(=O)OC(C)C)C[C@H](C)N3C(C)=O)cc1` [Example I-1073] are 100 to 1000 nM, 50 to 500 nM and 100 to 500 nM.
Regarding `CNS(=O)(=O)c1ccc(-c2ccc3c(c2)N(C(=O)C2CCC2)C[C@H](C)N3C(C)=O)cc1` [Example I-1120], the IC50 at BRD4 BD1 is 1000 to 10000 nM; at BRD4 BD2, 50 to 500 nM; with MV4-11 cells (MV4-11, 72 h), 100 to 500 nM.
Regarding `CC(=O)N1c2cc(NS(C)(=O)=O)ccc2N(C(=O)OC(C)C)C[C@@H]1C` [Example I-201, Isopropyl (S)-4-acetyl-3-methyl-6-(methylsulfonamido)-3,4-dihydro quinoxaline-1(2H)-carboxylate], the IC50 at BRD4 BD1 was > 10000 nM; on BRD4 BD2, > 500 nM; in the assay with MV4-11 cells (MV4-11, 72 h), > 500 nM.
